The values below come from patent US9073955B2, “2-amino-4-arylthiazole compounds as TRPA1 antagonists” (Glenmark Pharmaceuticals, S.A., priority 2010, dated 2015).

Like-named read-outs stand apart in the source and are kept apart here.

Data set [1] can be described thus: Determination of solubility by shake flask method (water). The note with it: for aqueous solubility over the parent thiazole acetamide: compared with the corresponding parent compound of formula (1); for solubility at 15 min: thermodynamic from solid, ‘P’ substituted thiazole compound, water, 37° C., shake flask. The data set is classed as physicochemical. The protocol:
About 1 mg of test substance was taken in test tube and water was added in the increment of 1 ml with shaking after addition of media (water). Solubility was observed visually also. After completion of addition of 10 ml volume of media (water), test tube containing sample solution were put on a mechanical shaker set at 37° C. and 200 rpm for shaking up to 15 minute. After shaking, content of flask was filtered through 0.45μ filter. This filtered solution is analyzed using HPLC method for quantification. A sample solution of 1 mg in 10 ml of DMSO is used as reference standard for quantifying dissolved test substance in media. Solubility is expressed as mcg/ml.
Aqueous solubility of ‘P’ substituted thiazole compounds and the parent thiazole compounds were determined using the above described procedure and the results are given Table 3.

In another data set the target is T1, Human TRPA1 (Homo sapiens, UniProt O75762).
T1 construct: expressed in transfected cells; host or cells: CHO cells (grown with 400 μg/ml G-418)
Put plainly: 45Calcium uptake assay: inhibition of AITC induced cellular uptake of radioactive calcium. The data set is classed as cell-based. As to conditions: human TRPA1 expressing CHO cells, AITC 30 μM; for inhibition at 1 µM: read-out: Percentage inhibition at 1.0 μM; for inhibition at 10 µM: read-out: Percentage inhibition at 10.0 μM. The protocol:
The illustrative examples of the present invention were screened for TRPA1 activity according to a modified procedure described in (a) Tóth, A. et al. Life Sciences, 2003, 73, 487-498. ([…]. et al, Proc. Natl. Acad. Sci. U.S.A., 2007, 104, 13525-13530. The screening of the compounds can be carried out by other methods and procedures known to persons skilled in the art. Screening for TRPA1 Antagonist Using the ^45Calcium Uptake Assay: The inhibition of TRPA1 receptor activation was measured as inhibition of allyl isothiocyanate (AITC) induced cellular uptake of radioactive calcium. Test compounds were dissolved in 100% DMSO to prepare 10 mM stock and then diluted using plain medium with 0.1% BSA and 1.8 mM CaCl2 to get the desired concentration. The final concentration of DMSO in the reaction was 0.5% (v/v). Human TRPA1 expressing CHO cells were grown in F-12 DMEM medium with 10% FBS, 1% penicillin-streptomycin solution, and 400 μg/ml of G-418. Cells were seeded 24 h prior to the assay in 96 well plates so as to get 50,000 cells per well on the day of experiment. Cells were treated with the test compounds for 10 minutes followed by the addition of AITC at a final concentration of 30 μM and 5 μCi/ml^45Ca^+2 for 3 minutes. Cells were washed and lysed using a buffer containing 1% Triton X-100, 0.1% deoxycholate and 0.1% SDS. Radioactivity in the lysate was measured in a Packard TopCount after addition of liquid scintillant. (Toth et al, Life Sciences (2003) 73, 487-498; McNamara C R et al, Proceedings of the National Academy of Sciences, (2007) 104, 13525-13530). Concentration response curves were plotted as a % of maximal response obtained in the absence of test antagonist. IC50 values can be calculated from concentration response curve by nonlinear regression analysis using GraphPad PRISM software.

Data set [2] in a line: Rat pharmacokinetic (PK) study, oral suspension. The note with it: for pharmacokinetic properties (Cmax and AUC) compared to the parent thiazole acetamide: compared with the corresponding parent compound of formula (1). The data set is classed as in vivo, male rats (Sprague Dawley). As to the method: PK values were obtained in male rats (strain: Sprague Dawley) orally dosed with the compounds of the present invention as suspension. Accurately weighed quantity of compound of present invention (corrected for purity and salt factor) was transferred into a clean and dry mortar. To this mortar was added 2.5 μL/mL Tween 80 and triturated until the compound gets properly wet. To this, 0.5% (w/v) methyl cellulose suspension was added in geometric proportions and triturated thoroughly to form a uniform suspension.
Animals were provided with food and water ad libitum through out the study period. Animals were dosed orally with the compounds using a gavage needle at 10 mL/kg body weight. Blood samples (250 μl approx.) were collected from male Sprague Dawley retro orbital sinus using rat capillary tubes into 0.6 mL eppendorf tubes with tripotassium ethylenediaminetetraacetic acid (K3 EDTA) (25 μL) as anticoagulant. Samples were collected at 0.5, 1.0, 2.0, 4.0, 6.0, 8.0, 12.0 and 24.0 hr post dosing for compounds. Then samples were centrifuged immediately at 1000 g for 10 min. at 4° C. Plasma samples were separated and stored at −70° C. till analysis. Samples were processed and analyzed using LCMS/MS. Pharmacokinetic parameters were calculated using Winonlin software. Table 4 provides the pK values (Cmax, AUC) obtained in these studies.

T1 sequence (O75762 whole entry): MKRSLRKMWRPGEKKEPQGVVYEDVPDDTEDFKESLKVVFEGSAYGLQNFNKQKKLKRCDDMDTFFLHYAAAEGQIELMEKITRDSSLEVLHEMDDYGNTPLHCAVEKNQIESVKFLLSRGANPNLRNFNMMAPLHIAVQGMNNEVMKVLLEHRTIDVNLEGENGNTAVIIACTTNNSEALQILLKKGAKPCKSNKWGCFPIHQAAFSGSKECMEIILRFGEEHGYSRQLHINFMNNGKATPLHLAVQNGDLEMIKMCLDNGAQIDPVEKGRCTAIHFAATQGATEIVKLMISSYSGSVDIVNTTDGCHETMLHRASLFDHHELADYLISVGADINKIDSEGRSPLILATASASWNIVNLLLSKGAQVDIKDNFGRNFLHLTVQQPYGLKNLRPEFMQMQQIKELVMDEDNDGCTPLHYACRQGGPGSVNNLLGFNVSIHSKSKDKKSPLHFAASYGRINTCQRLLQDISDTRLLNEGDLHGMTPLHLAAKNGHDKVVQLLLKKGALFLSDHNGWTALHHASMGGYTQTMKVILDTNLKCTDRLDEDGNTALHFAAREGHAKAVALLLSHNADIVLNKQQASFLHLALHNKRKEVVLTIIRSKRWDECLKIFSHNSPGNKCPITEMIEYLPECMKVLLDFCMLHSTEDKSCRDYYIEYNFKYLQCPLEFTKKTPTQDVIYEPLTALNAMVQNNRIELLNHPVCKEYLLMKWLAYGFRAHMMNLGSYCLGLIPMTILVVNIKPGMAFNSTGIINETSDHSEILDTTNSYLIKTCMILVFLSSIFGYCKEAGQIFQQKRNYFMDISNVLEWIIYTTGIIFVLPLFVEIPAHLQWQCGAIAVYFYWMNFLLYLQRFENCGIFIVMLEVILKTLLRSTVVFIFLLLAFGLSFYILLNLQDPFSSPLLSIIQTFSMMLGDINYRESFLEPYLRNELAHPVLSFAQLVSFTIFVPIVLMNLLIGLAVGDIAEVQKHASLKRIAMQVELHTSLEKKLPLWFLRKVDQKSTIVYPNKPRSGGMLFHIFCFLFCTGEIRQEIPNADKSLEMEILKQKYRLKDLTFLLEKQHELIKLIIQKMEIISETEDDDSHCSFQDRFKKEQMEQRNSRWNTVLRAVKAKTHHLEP

Take `Cl.Cn1c(=O)c2c(CC(=O)/N=c3\scc(-c4ccc(F)c(C(F)(F)F)c4F)n3COC(=O)CN)csc2n(C)c1=O` [Example 3, [4-[2,4-Difluoro-3-(trifluoromethyl)phenyl]-2-{[(1,3-dimethyl-2,4-dioxo-1,2,3,4-tetrahydrothieno[2,3-d]pyrimidin-5-yl)acetyl]imino}-1,3-thiazol-3 (2H)-yl]methyl glycinate hydrochloride]: the “aqueous solubility over the parent thiazole acetamide” value in data set [1] is “better aqueous solubility”. In addition, on Human TRPA1, the inhibition at 1 µM stood at 100%, the inhibition at 10 µM was 99.9% and the IC50 is less than 0.1 µM.
On to `CC[C@H](C)[C@H](N)C(=O)OCn1c(-c2ccc(C(F)(F)F)c(F)c2)cs/c1=N\C(=O)Cc1csc2c1c(=O)n(C)c(=O)n2C.Cl` [Example 6, [2-{[(1,3-Dimethyl-2,4-dioxo-1,2,3,4-tetrahydrothieno[2,3-d]pyrimidin-5-yl)acetyl]imino}-4-[3-fluoro-4-(trifluoromethyl)phenyl]-1,3-thiazol-3(2H)-yl]methyl L-isoleucinate hydrochloride], for which the “pharmacokinetic properties (Cmax and AUC) compared to the parent thiazole acetamide” value in data set [2] is given as “better pharmacokinetic properties”. At Human TRPA1, the inhibition at 1 µM stood at 89.8%, the inhibition at 10 µM is 98.6% and the IC50 is 0.1 to 0.5 µM.
`CC[C@H](C)[C@H](N)C(=O)OCn1c(-c2ccc(F)c(C(F)(F)F)c2F)cs/c1=N\C(=O)Cc1csc2c1c(=O)n(C)c(=O)n2C.Cl` [Example 7, [4-[2,4-Difluoro-3-(trifluoromethyl)phenyl]-2-{[(1,3-dimethyl-2,4-dioxo-1,2,3,4-tetrahydrothieno[2,3-d]pyrimidin-5-yl)acetyl]imino}-1,3-thiazol-3 (2H)-yl]methyl L-isoleucinate hydrochloride]: the “pharmacokinetic properties (Cmax and AUC) compared to the parent thiazole acetamide” value in data set [2] is reported as “better pharmacokinetic properties”. For the same compound, on Human TRPA1, the inhibition at 1 µM was 98.6%, the inhibition at 10 µM was found to be 99.6% and the IC50 is less than 0.1 µM.
On to `Cl.Cn1c(=O)c2c(CC(=O)/N=c3\scc(-c4ccc(F)c(C(F)(F)F)c4F)n3COC(=O)C3CCNCC3)csc2n(C)c1=O` [Example 10, [4-[2,4-Difluoro-3-(trifluoromethyl)phenyl]-2-{[(1,3-dimethyl-2,4-dioxo-1,2,3,4-tetrahydrothieno[2,3-d]pyrimidin-5-yl)acetyl]imino}-1,3-thiazol-3(2H)-yl]methyl piperidine-4-carboxylate hydrochloride], for which, in data set [1], the “aqueous solubility over the parent thiazole acetamide” value is given as “better aqueous solubility” and the solubility at 15 min is greater than 0.029 mg/mL. In addition, at Human TRPA1, the inhibition at 1 µM was 90.5%, the inhibition at 10 µM came out at 89.3% and the IC50 was 0.1 to 0.5 µM.
With `Cn1c(=O)c2c(CC(=O)/N=c3\scc(-c4ccc(F)c(C(F)(F)F)c4F)n3COP(=O)(O)O)csc2n(C)c1=O` [Example 13, [4-[2,4-Difluoro-3-(trifluoromethyl)phenyl]-2-{[(1,3-dimethyl-2,4-dioxo-1,2,3,4-tetrahydrothieno[2,3-d]pyrimidin-5-yl)acetyl]imino}-1,3-thiazol-3 (2H)-yl]methyl dihydrogen phosphate], the solubility at 15 min in data set [1] is greater than 0.0025 mg/mL. On Human TRPA1 (CHO), the inhibition at 1 µM turned out to be 75.3% and the inhibition at 10 µM amounted to 99.3%. The IC50 at Human TRPA1 was greater than 0.5 µM.
For the compound `Cn1c(=O)c2c(CC(=O)/N=c3\scc(-c4ccc(F)c(C(F)(F)F)c4F)n3COP(=O)([O-])[O-])csc2n(C)c1=O.[Na+].[Na+]` [Example 14, Disodium[4-[2,4-difluoro-3-(trifluoromethyl)phenyl]-2-{[(1,3-dimethyl-2,4-dioxo-1,2,3,4-tetrahydrothieno[2,3-d]pyrimidin-5-yl)acetyl]imino}-1,3-thiazol-3(2H)-yl]methyl phosphate], in data set [1], the solubility at 15 min was greater than 1.2 mg/mL. For the same compound, at Human TRPA1, the IC50 lay in the range of 0.1 to 0.5 µM.
With `Cc1oc2c(c1CC(=O)/N=c1\scc(-c3ccc(OC(F)(F)F)c(Cl)c3)n1COC(=O)CN)c(=O)n(C)c(=O)n2C.Cl` [Example 20, [4-[3-Chloro-4-(trifluoromethoxy)phenyl]-2-{[(1,3,6-trimethyl-2,4-dioxo-1,2,3,4-tetrahydrofuro[2,3-d]pyrimidin-5-yl)acetyl]imino}-1,3-thiazol-3 (2H)-yl]methyl glycinate hydrochloride], the “pharmacokinetic properties (Cmax and AUC) compared to the parent thiazole acetamide” value in data set [2] was “better pharmacokinetic properties”. Also, on Human TRPA1, the inhibition at 1 µM turned out to be 96.7%, the inhibition at 10 µM was 96.2% and the IC50 was less than 0.1 µM.
Take `Cc1oc2c(c1CC(=O)/N=c1\scc(-c3ccc(OC(F)(F)F)c(Cl)c3)n1COC(=O)[C@@H](N)C(C)C)c(=O)n(C)c(=O)n2C.Cl` [Example 21, [4-[3-Chloro-4-(trifluoromethoxy)phenyl]-2-{[(1,3,6-trimethyl-2,4-dioxo-1,2,3,4-tetrahydrofuro[2,3-d]pyrimidin-5-yl)acetyl]imino}-1,3-thiazol-3(2H)-yl]methyl L-valinate hydrochloride]: in data set [2], the “pharmacokinetic properties (Cmax and AUC) compared to the parent thiazole acetamide” value is on record as “better pharmacokinetic properties”. For the same compound, on Human TRPA1 (CHO), the inhibition at 1 µM came out at 93.8% and the inhibition at 10 µM stood at 99.9%. On Human TRPA1, the IC50 was less than 0.1 µM.
Turning to `Cc1oc2c(c1CC(=O)/N=c1\scc(-c3ccc(OC(F)(F)F)c(Cl)c3)n1COC(=O)C1CCNCC1)c(=O)n(C)c(=O)n2C.Cl` [Example 23, [4-[3-Chloro-4-(trifluoromethoxy)phenyl]-2-{[(1,3,6-trimethyl-2,4-dioxo-1,2,3,4-tetrahydrofuro[2,3-d]pyrimidin-5-yl)acetyl]imino}-1,3-thiazol-3 (2H)-yl]methyl piperidine-4-carboxylate hydrochloride], in data set [2], the “pharmacokinetic properties (Cmax and AUC) compared to the parent thiazole acetamide” value was “better pharmacokinetic properties”. Further, on Human TRPA1, the inhibition at 1 µM is 91.2%, the inhibition at 10 µM turned out to be 97.8% and the IC50 fell in the range of 0.1 to 0.5 µM.
As for `Cn1c(=O)c2c(CC(=O)N=c3scc(-c4ccc(C(F)(F)F)c(F)c4F)n3COP(=O)(O)O)nsc2n(C)c1=O` [Example 32, Disodium-(4-(2,3-difluoro-4-(trifluoromethyl)phenyl)-2-((2-(5,7-dimethyl-4,6-dioxo-4,5,6,7-tetrahydroisothiazolo[5,4-d]pyrimidin-3-yl)acetyl)imino)thiazol-3 (2H)-yl)methyl phosphate], at Human TRPA1, the inhibition at 1 µM turned out to be 13.8%, the inhibition at 10 µM is 81% and the IC50 was greater than 0.5 µM.
For `Cn1c(=O)c2c(CC(=O)Nc3nc(-c4ccc(C(F)(F)F)c(F)c4F)cs3)nsc2n(C)c1=O` [parent of Example 31, N-{4-[2,3-difluoro-4-(trifluoromethyl)phenyl]-1,3-thiazol-2-yl}-2-(5,7-dimethyl-4,6-dioxo-4,5,6,7-tetrahydro[1,2]thiazolo[5,4-d]pyrimidin-3-yl)acetamide, reference compound], in data set [2] (rat, plasma, parent thiazole compound of the example, male Sprague Dawley rats, oral suspension), the Cmax is less than 0.25 µg/mL. Also, the AUC(0-t) in data set [2] (rat, plasma, parent thiazole compound of the example, male Sprague Dawley rats, oral suspension, read-out: AUC0-24) is less than 2.5 µg·h/mL.

Broadly, the inhibition is the share of the control response that was lost under treatment. As a reminder, the IC50 is the concentration that gives 50% inhibition. As a reminder, the solubility is the dissolved amount per volume that the medium holds. Low values mean a poorly soluble substance, high ones a readily soluble substance. As usually defined, the Cmax is the highest concentration seen after dosing.
